Experimental data reported in patent US11389427B2, “Compositions and methods of treating cardiac hypertrophy and heart failure” (CASE WESTERN RESERVE UNIVERSITY, priority 2017, dated 2022).

How the values were obtained:
[1] = system: neonatal rat ventricular myocytes (NRVMs); experiment: Phenylephrine-induced (PE-induced) cardiomyocyte hypertrophy in NRVMs; format: cell-based; design: PE-induced cellular hypertrophy (cell size) / PE-induced expression of cellular stress markers (qPCR of Nppa and Nppb): unit of the concentration uncertain
Protocol: (§1) SR9009 was synthesized and purified in the laboratory of Thomas Burris (Department of Pharmacology and Physiology, St. Louis University, St. Louis, Mo., USA). For in vitro experiments, SR9009 was dissolved in DMSO and administered at […]; GSK4112 (EMD Millipore) was dissolved in DMSO and administered at […] using an equal volume of DMSO as control. For in vivo experiments, SR9009 was dissolved in 5% DMSO/10% Cremaphor EL (Sigma-Aldrich, C5135)/85% PBS in a working solution at 10 mg/ml. Micewere injected at a dose of 100 mg/kg/day given i.p. once daily at zeitgeber time 8 (ZT8). The diluent without SR9009 of the same volume was used as control.
NRVMs and CFs were isolated from the hearts of 2-day-old Sprague-Dawley rat pups (Charles River Laboratories). The cells were differentially preplated for 1.5 hr. The nonattached cells were collected as NRVM and replated with 48 hr exposure to BrdU to suppress nonmyocytes. The attached cells were passaged 2-3 times to obtain CFs. NRVMs were initially plated in growth medium (DMEM supplemented with 10% FBS, 100 U/ml penicillin-streptomycin, and 2 mM L-glutamine) for 48 hr and maintained in serum-free media thereafter (DMEM supplemented with 1% insulin-transferrin-selenium liquid media supplement [Sigma-Aldrich, 13146], 100 U/ml penicillin-streptomycin). For hypertrophic stimulation, NRVM were incubated with SR9009 or GSK4112 versus DMSO for 24 hr, followed by stimulation with PE (100 μM) for the indicated time. […]
NRVM were plated on glass coverslips in 6-well dishes at a density of 1×10^5 cells/ml. […] Quantitation of cardiomyocyte cell surface area was performed on anti-actinin-stained cardiomyocytes using fluorescent microscopy and ImagePro software. […]
(§2) For tissue RNA, a 10-20 mg piece of mouse heart at apex was preserved in RNA Later stabilization reagent (Qiagen) followed by mechanical disruption/homogenization in Trizol (Life Technologies) on a TissueLyser (Qiagen) using stainless steel beads (Qiagen). […] Relative expression was calculated using the ΔΔCt-method with normalization to Ppib (Cyclophilin-B). […]

[2] = system: C57BL/6J mice, TAC pressure overload; experiment: Pressure overload model, transaortic constriction (TAC, 27 gauge), 6-week followup; format: in vivo; settings: for Corrected left ventricle mass (LVm): echocardiogram; for Ejection fraction (EF): SR9009 i.p. daily from 1 day after surgery
Protocol: as §1, with “Micewere injected at a dose of 100 mg/kg/day given i.p. once daily at zeitgeber time 8 (ZT8).” left out
(§3) All mice were C57BL/6J littermate males aged 9 weeks at the start of the experiment. Mice were anesthetized with ketamine/xylazine, mechanically ventilated (Harvard apparatus), and subjected to thoracotomy. The aortic arch was constricted between the left and right carotid arteries using a 7.0 silk suture and a 27- or 28-gauge needle as previously described (20). Chemicals were obtained from Sigma-Aldrich.
(§4) For transthoracic echocardiography, mice were anesthetized with 1% inhalational isofluorane and imaged using the Vevo 770 High Resolution Imaging System (Visual Sonics Inc.) and the RMV-707B 30 MHz probe. Measurements were obtained from M-mode sampling, and integrated EKVimages were taken in the LV short axis at the mid-papillary level.
Short-axis heart sections from the midventricle were fixed in PBS/4% paraformaldehyde and embedded in paraffin. Fibrosis was visualized using Gomori's Trichrome staining kit (Sigma-Aldrich) with quantification of fibrotic area using ImagePro software. TUNEL staining was performed using the CardioTACS In Situ Apoptosis Detection kit (R&D Systems) according to manufacturer's instructions. Cryopreserved sections were used for myocardial capillary staining, which was performed in frozen LV sections using anti-PECAM-1 antibodies (1:200, BD Pharmingen, MEC13.3). The cardiomyocyte cross-sectional area was determined by staining with WGA Alexa 594 (Life Technologies) and analyzed using ImagePro software.
Given the strong effect of SR9009 in blocking the cellular remodeling in response to neurohormonal stress, we next tested the role of REV-ERBα activation in vivo using the classical pressure overload model. We started daily i.p. injection of SR9009 or Veh 1 day after transaortic constriction (TAC, 27 gauge) surgery and monitored cardiac hypertrophy and function by echocardiogram for 6 weeks. […] These findings were later confirmed by autopsy performed 6 weeks after TAC by heart weight and muscle fiber size analyses using wheat germ agglutinin staining on cryopreserved sections (FIGS. 3, B-E).

[3] = system: C57BL/6J mice, 28-gauge TAC heart failure model; experiment: Heart failure model, 28-gauge TAC with cross-over, 11-week followup; format: in vivo, mouse
Protocol: as §1, §3
as §4, with “level. […]” for “level.”

[4] = mouse, in vivo
Protocol: Conscious tail-vein systolic blood pressure was measured using the BP2000 Blood Pressure Analysis System (Visitech Systems Inc.) as recommended by the manufacturer. To allow mice to adapt to the apparatus, we performed daily blood pressure measurements for 1 week prior to beginning experiments.
SR9009 is a drug given systemically and may potentially affect other systems, such as the vascular tone, although pressure overload itself is considered a relatively specific stress directly on the heart. To exclude the possibility that the improved cardiac function and reduced hypertrophy in vivo is associated with improvement in hemodynamics, we measured blood pressure using tail cuff and found there is no difference in mice receiving 4 weeks of Veh (mean arterial pressure [MAP]=106 mmHg) or SR9009 (MAP=115 mmHg, P=0.24).

[5] = system: cardiac fibroblasts (CFs); experiment: TGβ1-induced inflammatory response of cultured cardiac fibroblasts (CFs); format: cell-based, rat; settings: cultured CFs pretreated with Veh or SR9009
Protocol: NRVMs and CFs were isolated from the hearts of 2-day-old Sprague-Dawley rat pups (Charles River Laboratories). The cells were differentially preplated for 1.5 hr. The nonattached cells were collected as NRVM and replated with 48 hr exposure to BrdU to suppress nonmyocytes. The attached cells were passaged 2-3 times to obtain CFs. NRVMs were initially plated in growth medium (DMEM supplemented with 10% FBS, 100 U/ml penicillin-streptomycin, and 2 mM L-glutamine) for 48 hr and maintained in serum-free media thereafter (DMEM supplemented with 1% insulin-transferrin-selenium liquid media supplement [Sigma-Aldrich, 13146], 100 U/ml penicillin-streptomycin). For hypertrophic stimulation, NRVM were incubated with SR9009 or GSK4112 versus DMSO for 24 hr, followed by stimulation with PE (100 μM) for the indicated time. CFs were cultured in DMEM supplemented with 10% FBS, 100 U/ml penicillin-streptomycin, and 2 mM L-glutamine and stimulated with TGβ1 (eBioscience).

[6] = system: human induced pluripotent stem cell-differentiated cardiomyocytes (iPS-CM); experiment: Endothelin-1-induced hypertrophic response in human iPS-differentiated cardiomyocytes; format: cell-based; settings: SR9009 pretreatment, ET-1 (10 nM)
Protocol: We purchased human induced pluripotent stem cell-differentiated cardiomyocytes from Cellular Dynamics (iCell). We followed manufacturer's protocol and measured NPPB expression 24 hr after ET-1 (10 nM, Sigma-Aldrich) induction.
as §2, with “(Qiagen). RNA was purified from the aqueous phase using the miRNAeasy kit (Qiagen) following manufacturer's instructions. For cellular samples, total RNA from NRVM was isolated using the High Pure RNA isolation kit (Roche Diagnostics) with on-column DNAase treatment according to manufacturer's directions.” for “(Qiagen).”
We induced cellular hypertrophic response in human induced pluripotent stem cell-differentiated cardiomyocytes with endothelin-1 (ET-1) and monitored NPPB (BNP) expression with SR9009 or Veh pretreatment.

mouse heart mitochondria = experiment: Mitochondria number, morphology and respiration in mouse hearts after TAC; format: in vivo; settings: 10 weeks after TAC, vs Veh
Protocol: The assay was performed using Seahorse (Agilent) and following the manufacturer's published protocol. Isolated mitochondria (0.5 μg; measured by BCA assay) were loaded per assay.
Total DNA was extracted from the hearts or NRVMs using the QIAamp DNA Mini Kit (Qiagen, 51304). Mitochondrial DNA content was assessed by qPCR using primers specific for multiple mitochondrial-encoded genes (int-Cox1, mt-Nd2, int-Nd1, and mt-Nd5) and normalized to nuclear DNA content (a specific locus on mouse chromosome 6) using the ΔΔCt method.
Small pieces of tissue from the LV free wall were fixed by sequential immersion in triple aldehyde-DMSO, ferrocyanide-reduced osmium tetroxide, and acidified uranyl acetate; dehydrated in ascending concentrations of ethanol; passed through propylene oxide; and embedded in Poly/Bed resin (Polysciences Inc., 21844-1). Thin sections were sequentially stained with acidified uranyl acetate, followed by a modification of Sato's triple lead stain, and examined with a JEOL 1200EX electron microscope.

Compound: CCOC(=O)N1CCC(CN(Cc2ccc(Cl)cc2)Cc2ccc([N+](=O)[O-])s2)C1 (stereo not shown) [SR9009]
- PE-induced expression of cellular stress markers (qPCR of Nppa and Nppb) ([1]; NRVMs pretreated 24 hours, then PE 48 hours, SR9009 at 5 (unit uncertain), GSK4112 at 10 (unit uncertain)): effectively blocked
- PE-induced cellular hypertrophy (cell size) ([1]; NRVMs pretreated 24 hours, then PE (100 μM) 48 hours, SR9009 at 5 (unit uncertain)): effectively blocked
- PE repression of Pdk4 expression (RNA-Seq) ([1]; NRVMs, SR9009 given 24 hr prior to PE): ameliorated
- Toxicity of the SR9009 dose ([2]; 10 mg/kg/day, daily i.p., mice): no apparent toxicity
- Corrected left ventricle mass (LVm) ([2]; 4 weeks after 27-gauge TAC): 111.4 mg
- Ejection fraction (EF) ([2]; 4 weeks after 27-gauge TAC): 61.4%
- Corrected left ventricle mass (LVm) ([2]; 6 weeks after 27-gauge TAC): 114.8 mg
- Ejection fraction (EF) ([2]; 6 weeks after 27-gauge TAC): 60.6%
- Cell death, TUNEL positives per cross-section of the whole heart ([2]; 6 weeks after TAC): 13.4 positives per cross-section of the whole heart
- Capillary density ([2]; after 6 weeks of TAC, Veh- vs SR9009-treated): no difference
- Intramuscular fibrosis area ([2]; end of 6 weeks after TAC, Gomori Trichrome): 1.1%
- Ejection fraction (EF) ([3]; 6 weeks after 28-gauge TAC, Group II, SR9009 from 2 weeks after TAC (average EF 44% at start)): 43.9%±5%
- Ejection fraction (EF) ([3]; after cross-over, additional 5 weeks, Group I received SR9009 (EF 29.1% at cross-over)): 29.8%±3.7%
- Mean arterial pressure (MAP) [4]: 115 mmHg
- TGβ1-induced inflammatory response [5]: no difference
- ET-1-induced NPPB (BNP) expression [6]: protective effect
- Mitochondria morphology by electron microscopy (mouse heart mitochondria): no difference
- Mitochondria number estimated by mtDNA to nuclear DNA ratio (mouse heart mitochondria): no difference
- Oxidative phosphorylation (OXPHOS) measured by oxygen consumption rate (mouse heart mitochondria): no difference
